Legend:
Assay in all cases: biochemical
Settings in all cases: read-out: % inhibition mean (Z'Lyte)
PRKG2 (PKG2) = PRKG2 (PKG2) (Homo sapiens, UniProt Q13237)
FGFR4 = FGFR4 (Homo sapiens, UniProt P22455)
MYLK2 (skMLCK) = MYLK2 (skMLCK) (Homo sapiens, UniProt Q9H1R3)
EPHB4 = EPHB4 (Homo sapiens, UniProt P54760)
EPHB1 = EPHB1 (Homo sapiens, UniProt P54762)
MAPK7 (ERK5) = MAPK7 (ERK5) (Homo sapiens, UniProt Q13164)
TYK2 = TYK2 (Homo sapiens, UniProt P29597)
PASK = PASK (Homo sapiens, UniProt Q96RG2)
CAMK4 (CaMKIV) = CAMK4 (CaMKIV) (Homo sapiens, UniProt Q16566)
EPHA1 = EPHA1 (Homo sapiens, UniProt P21709)
TAOK2 (TAO1) = TAOK2 (TAO1) (Homo sapiens, UniProt Q9UL54)
PHKG2 = PHKG2 (Homo sapiens, UniProt P15735)
ABL1 = ABL1 (Homo sapiens, UniProt P00519)
DYRK1A = DYRK1A (Homo sapiens, UniProt Q13627)
HIPK4 = HIPK4 (Homo sapiens, UniProt Q8NE63)
RPS6KB1 (p70S6K) = RPS6KB1 (p70S6K) (Homo sapiens, UniProt P23443)
EGFR (ErbB1) L858R = EGFR (ErbB1) L858R (Homo sapiens, UniProt P00533, L858R)
EPHA5 = EPHA5 (Homo sapiens, UniProt P54756)
CAMK2B (CaMKII beta) = CAMK2B (CaMKII beta) (Homo sapiens, UniProt Q13554)
[1] = target: EGFR (ErbB1) T790M C797S L858R (Homo sapiens, UniProt P00533, C797S/L858R/T790M)
AURKA (Aurora A) = AURKA (Aurora A) (Homo sapiens, UniProt O14965)
EPHA8 = EPHA8 (Homo sapiens, UniProt P29322)
NIM1K = NIM1K (Homo sapiens, UniProt Q8IY84)
CAMK2D (CaMKII delta) = CAMK2D (CaMKII delta) (Homo sapiens, UniProt Q13557)
MET (cMet) = MET (cMet) (Homo sapiens, UniProt P08581)
CAMK2A (CaMKII alpha) = CAMK2A (CaMKII alpha) (Homo sapiens, UniProt Q9UQM7)
SRPK2 = SRPK2 (Homo sapiens, UniProt P78362)
FLT3 D835Y = FLT3 D835Y (Homo sapiens, UniProt P36888, D835Y)

Chain of RPS6KB1 (p70S6K) (P23443 whole entry): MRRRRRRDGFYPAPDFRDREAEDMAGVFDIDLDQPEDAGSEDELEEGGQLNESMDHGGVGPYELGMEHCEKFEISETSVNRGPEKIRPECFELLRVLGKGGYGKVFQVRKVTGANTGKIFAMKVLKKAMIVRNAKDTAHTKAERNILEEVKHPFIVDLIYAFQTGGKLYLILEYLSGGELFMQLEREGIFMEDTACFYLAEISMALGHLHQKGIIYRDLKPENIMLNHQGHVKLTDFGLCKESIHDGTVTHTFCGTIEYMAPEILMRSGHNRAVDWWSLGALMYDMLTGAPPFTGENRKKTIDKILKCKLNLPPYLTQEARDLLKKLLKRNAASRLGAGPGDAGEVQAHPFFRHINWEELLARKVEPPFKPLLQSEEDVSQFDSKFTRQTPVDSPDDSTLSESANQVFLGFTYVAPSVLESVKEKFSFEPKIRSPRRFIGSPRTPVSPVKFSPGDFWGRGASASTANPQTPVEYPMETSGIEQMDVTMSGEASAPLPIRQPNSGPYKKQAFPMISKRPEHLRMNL
Chain of CAMK2B (CaMKII beta) (Q13554 whole entry): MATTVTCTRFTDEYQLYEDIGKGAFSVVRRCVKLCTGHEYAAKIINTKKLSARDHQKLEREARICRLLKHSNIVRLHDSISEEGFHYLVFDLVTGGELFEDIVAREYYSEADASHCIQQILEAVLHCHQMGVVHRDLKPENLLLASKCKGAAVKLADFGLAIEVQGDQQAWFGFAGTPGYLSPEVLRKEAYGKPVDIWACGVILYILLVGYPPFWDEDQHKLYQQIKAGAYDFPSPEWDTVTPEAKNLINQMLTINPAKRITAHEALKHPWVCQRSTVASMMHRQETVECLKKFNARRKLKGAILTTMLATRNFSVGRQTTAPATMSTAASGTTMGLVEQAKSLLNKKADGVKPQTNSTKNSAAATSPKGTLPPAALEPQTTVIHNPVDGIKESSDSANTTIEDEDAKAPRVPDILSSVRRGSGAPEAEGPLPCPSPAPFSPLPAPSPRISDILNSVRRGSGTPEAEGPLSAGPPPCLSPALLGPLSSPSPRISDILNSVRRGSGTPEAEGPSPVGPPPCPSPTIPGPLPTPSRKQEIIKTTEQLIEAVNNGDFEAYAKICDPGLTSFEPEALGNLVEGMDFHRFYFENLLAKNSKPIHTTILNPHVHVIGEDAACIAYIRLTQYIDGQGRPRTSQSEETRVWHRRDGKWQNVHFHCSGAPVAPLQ
Chain of CAMK2D (CaMKII delta) (Q13557 whole entry): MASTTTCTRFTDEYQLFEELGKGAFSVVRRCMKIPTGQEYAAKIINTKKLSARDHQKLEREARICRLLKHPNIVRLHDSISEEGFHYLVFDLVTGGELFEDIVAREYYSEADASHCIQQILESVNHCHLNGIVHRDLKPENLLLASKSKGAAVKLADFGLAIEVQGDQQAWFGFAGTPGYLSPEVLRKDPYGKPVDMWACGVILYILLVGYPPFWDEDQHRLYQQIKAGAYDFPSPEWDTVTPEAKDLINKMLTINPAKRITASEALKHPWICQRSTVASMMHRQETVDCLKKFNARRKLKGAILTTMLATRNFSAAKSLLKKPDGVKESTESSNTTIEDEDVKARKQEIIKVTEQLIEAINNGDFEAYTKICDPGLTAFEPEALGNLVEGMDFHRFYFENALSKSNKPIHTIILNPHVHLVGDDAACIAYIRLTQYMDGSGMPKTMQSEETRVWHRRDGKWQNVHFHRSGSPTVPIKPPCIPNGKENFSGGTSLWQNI
Chain of PASK (Q96RG2 whole entry): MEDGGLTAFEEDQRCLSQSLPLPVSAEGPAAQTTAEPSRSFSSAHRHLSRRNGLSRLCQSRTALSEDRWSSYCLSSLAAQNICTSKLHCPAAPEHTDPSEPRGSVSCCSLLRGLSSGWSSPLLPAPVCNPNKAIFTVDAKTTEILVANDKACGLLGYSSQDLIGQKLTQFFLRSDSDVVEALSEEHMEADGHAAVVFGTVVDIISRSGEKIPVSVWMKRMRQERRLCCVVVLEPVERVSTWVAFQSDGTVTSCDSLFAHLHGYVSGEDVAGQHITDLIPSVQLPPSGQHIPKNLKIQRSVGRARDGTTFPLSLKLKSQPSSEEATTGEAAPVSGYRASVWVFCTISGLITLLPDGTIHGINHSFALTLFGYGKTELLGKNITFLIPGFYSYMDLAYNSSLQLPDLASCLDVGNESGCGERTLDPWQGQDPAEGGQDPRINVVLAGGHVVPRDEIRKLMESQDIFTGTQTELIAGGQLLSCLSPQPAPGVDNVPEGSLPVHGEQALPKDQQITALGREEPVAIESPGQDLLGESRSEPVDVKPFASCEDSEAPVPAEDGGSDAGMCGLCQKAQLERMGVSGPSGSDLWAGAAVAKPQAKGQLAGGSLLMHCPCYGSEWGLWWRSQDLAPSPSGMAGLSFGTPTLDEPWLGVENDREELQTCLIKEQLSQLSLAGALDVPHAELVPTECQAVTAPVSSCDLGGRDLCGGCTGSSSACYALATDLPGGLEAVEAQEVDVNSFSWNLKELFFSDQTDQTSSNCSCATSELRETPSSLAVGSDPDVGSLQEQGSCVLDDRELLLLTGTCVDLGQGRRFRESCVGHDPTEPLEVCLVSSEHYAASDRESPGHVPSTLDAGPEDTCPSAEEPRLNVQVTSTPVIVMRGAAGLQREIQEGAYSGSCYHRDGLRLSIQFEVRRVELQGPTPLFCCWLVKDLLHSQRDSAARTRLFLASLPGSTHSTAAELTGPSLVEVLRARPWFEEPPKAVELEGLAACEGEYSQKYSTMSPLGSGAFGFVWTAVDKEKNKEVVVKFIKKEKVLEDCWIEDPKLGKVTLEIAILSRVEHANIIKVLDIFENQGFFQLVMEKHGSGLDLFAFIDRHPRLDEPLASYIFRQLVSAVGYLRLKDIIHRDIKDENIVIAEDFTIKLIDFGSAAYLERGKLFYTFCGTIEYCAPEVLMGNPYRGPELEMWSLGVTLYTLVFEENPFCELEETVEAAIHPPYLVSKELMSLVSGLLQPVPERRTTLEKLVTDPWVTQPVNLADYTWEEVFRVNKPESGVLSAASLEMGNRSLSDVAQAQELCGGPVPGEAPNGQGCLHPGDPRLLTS
Chain of MET (cMet) (P08581 whole entry): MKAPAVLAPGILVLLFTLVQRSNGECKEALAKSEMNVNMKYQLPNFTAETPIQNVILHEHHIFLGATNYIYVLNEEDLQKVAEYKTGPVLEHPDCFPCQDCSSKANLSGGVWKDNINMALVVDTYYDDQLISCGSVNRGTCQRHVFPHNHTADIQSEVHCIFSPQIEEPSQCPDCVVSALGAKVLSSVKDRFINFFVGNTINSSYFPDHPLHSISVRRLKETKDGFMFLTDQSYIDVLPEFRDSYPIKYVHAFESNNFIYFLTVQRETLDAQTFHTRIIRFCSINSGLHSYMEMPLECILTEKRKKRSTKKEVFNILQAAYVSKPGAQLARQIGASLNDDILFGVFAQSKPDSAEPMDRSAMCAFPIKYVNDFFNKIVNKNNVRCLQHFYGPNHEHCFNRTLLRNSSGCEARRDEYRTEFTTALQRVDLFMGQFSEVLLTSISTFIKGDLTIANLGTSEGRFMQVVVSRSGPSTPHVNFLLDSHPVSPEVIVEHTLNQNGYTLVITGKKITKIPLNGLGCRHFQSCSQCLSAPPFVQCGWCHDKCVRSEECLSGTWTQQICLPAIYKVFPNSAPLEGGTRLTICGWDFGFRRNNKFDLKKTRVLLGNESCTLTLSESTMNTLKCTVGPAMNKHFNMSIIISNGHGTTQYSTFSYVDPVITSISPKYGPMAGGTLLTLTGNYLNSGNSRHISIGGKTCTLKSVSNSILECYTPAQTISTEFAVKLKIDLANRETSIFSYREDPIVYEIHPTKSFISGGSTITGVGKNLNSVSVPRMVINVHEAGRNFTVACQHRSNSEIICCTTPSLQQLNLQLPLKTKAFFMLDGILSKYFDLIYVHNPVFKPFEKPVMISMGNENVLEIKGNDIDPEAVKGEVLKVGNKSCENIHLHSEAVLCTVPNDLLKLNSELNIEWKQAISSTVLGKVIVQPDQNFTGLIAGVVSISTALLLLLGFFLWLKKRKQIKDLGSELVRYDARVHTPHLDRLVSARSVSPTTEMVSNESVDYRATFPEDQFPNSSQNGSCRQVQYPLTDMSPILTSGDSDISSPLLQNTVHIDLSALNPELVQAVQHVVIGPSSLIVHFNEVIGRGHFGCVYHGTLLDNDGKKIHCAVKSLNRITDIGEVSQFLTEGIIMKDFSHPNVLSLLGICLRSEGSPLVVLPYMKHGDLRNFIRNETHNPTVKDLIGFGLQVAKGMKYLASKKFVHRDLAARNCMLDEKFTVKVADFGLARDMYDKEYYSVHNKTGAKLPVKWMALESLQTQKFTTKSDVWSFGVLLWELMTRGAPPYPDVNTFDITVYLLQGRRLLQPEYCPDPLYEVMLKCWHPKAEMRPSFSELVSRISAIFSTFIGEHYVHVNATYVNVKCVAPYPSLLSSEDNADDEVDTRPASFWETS
Chain of AURKA (Aurora A) (O14965 whole entry): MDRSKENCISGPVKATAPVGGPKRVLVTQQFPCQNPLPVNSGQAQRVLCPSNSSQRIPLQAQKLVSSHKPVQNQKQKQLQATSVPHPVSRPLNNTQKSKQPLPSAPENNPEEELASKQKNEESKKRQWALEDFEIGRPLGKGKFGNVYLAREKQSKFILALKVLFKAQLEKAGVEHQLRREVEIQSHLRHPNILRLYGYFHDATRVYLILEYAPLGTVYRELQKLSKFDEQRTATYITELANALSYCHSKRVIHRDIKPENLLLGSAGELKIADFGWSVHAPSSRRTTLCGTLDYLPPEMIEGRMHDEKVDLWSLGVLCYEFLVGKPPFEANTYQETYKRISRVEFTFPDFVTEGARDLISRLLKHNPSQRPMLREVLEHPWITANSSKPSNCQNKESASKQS

COc1ccc2nc3cc(Cl)ccc3c(Nc3cc(CN4CCCC4)c(O)c(CN4CCCC4)c3)c2n1 [Pyronaridine, 4-[(7-Chloro-2-methoxybenzo[b][1,5]naphthyridin-10-yl)amino]-2,6-bis(1-pyrrolidinylmethyl)phenol phosphate (1:4)]
inhibition at 1 µM (PRKG2 (PKG2)): 1% | inhibition at 1 µM (FGFR4): -14% | inhibition at 1 µM (MYLK2 (skMLCK)): 7% | inhibition at 1 µM (EPHB4): 7% | inhibition at 1 µM (EPHB1): 2% | inhibition at 1 µM (MAPK7 (ERK5)): 5% | inhibition at 1 µM (TYK2): 0% | inhibition at 1 µM (PASK): -4% | inhibition at 1 µM (CAMK4 (CaMKIV)): -5% | inhibition at 1 µM (EPHA1): 1% | inhibition at 1 µM (TAOK2 (TAO1)): -1% | inhibition at 1 µM (PHKG2): -2% | inhibition at 1 µM (ABL1): 2% | inhibition at 1 µM (DYRK1A): 3% | inhibition at 1 µM (HIPK4): 5% | inhibition at 1 µM (RPS6KB1 (p70S6K)): 3% | inhibition at 1 µM (EGFR (ErbB1) L858R): 5% | inhibition at 1 µM (EPHA5): -3% | inhibition at 1 µM (CAMK2B (CaMKII beta)): 1% | inhibition at 1 µM [1]: 2% | inhibition at 1 µM (AURKA (Aurora A)): 9% | inhibition at 1 µM (EPHA8): 1% | inhibition at 1 µM (NIM1K): -2% | inhibition at 1 µM (CAMK2D (CaMKII delta)): -5% | inhibition at 1 µM (MET (cMet)): -1% | inhibition at 1 µM (CAMK2A (CaMKII alpha)): 4% | inhibition at 1 µM (SRPK2): -4% | inhibition at 1 µM (FLT3 D835Y): 2%

Source: publication doi:10.1101/2021.09.30.462449v1 (biorxiv, 2021)
